Assay results from patent EP4520333A1, “SYK INHIBITORS FOR USE IN THE TREATMENT OF IMMUNE CHECKPOINT INHIBITION INDUCED ADVERSE EVENTS” (Albert-Ludwigs-Universität Freiburg, priority 2023, dated 2025).

Key:
[1] = tested on: mice; assay: Novel object recognition test; type: in vivo
Description: (§1) The invention is further described by the following figures. These are not intended to limit the scope of the invention but represent preferred embodiments of aspects of the invention provided for greater illustration of the invention described herein. • Figure 1: Microglia show signs of activation upon anti-PD-1 treatment in the absence of tumor. (A-C) Histology of brain samples immunostained for Iba-1^+ cells from the cortex of mice treated with anti-PD-1 or isotype control on day 22 after treatment. (A) Representative images from each group are shown. Scale bars, 50µm. The scatter plots show the number of Iba-1^+ cells (per mm^2) in cortex (B) and hippocampus (C). The results (mean ± s.e.m.) were combined. The experiment was performed three times. The P-values were calculated using the unpaired student's t-test. (D) Representative images showing Imaris (Bitplane)-based 3D-reconstruction of Iba-1^+ microglia from the cortex of mice treated with anti-PD-1 or isotype control as indicated. Scale bar: 10µm. (E-H) Scatter plots showing Imaris-based automated quantification of microglial morphology from microglia the cortex of mice treated with anti-PD-1 or isotype control on day 22 after treatment. […] The P-values were calculated using the unpaired student's t-test. • Figure 2: Anti-PD-1 treatment causes neurocognitive deficits and increased CSF-1R and MHC-II expression on microglia. (A-B) Representative immunofluorescence images and scatter plot depicting the quantification of the ratio of extravascular versus intravascular FITC-dextran indicative of BBB leakage via extravasation of FITC-dextran in the cortex of either untreated, isotype-treated, or anti-PD-1-treated mice. […] (C-D) The scatter plot (C) and representative histogram (D) show the quantification (fold change of MFI) of CSF-1R (CD115) on microglia (CD45^lo CD11b^+) isolated from the CNS of mice treated with anti-PD-1 or isotype control on day 22. […] The P-values were calculated using the student's t-test (B, C, E, K-M) and paired samples Wilcoxon test (G, I). […] The P-values were calculated using the unpaired student's t-test. […]

[2] = tested on: mice; assay: Elevated plus maze test; type: in vivo; settings: melanoma bearing mice, anti-PD-1 plus Syk inhibitor vs anti-PD-1 plus vehicle (Fig. 7L day 17; Fig. 33A)
Description: (§2) The invention is further described by the following figures. These are not intended to limit the scope of the invention but represent preferred embodiments of aspects of the invention provided for greater illustration of the invention described herein. • Figure 1: Microglia show signs of activation upon anti-PD-1 treatment in the absence of tumor. (A-C) Histology of brain samples immunostained for Iba-1^+ cells from the cortex of mice treated with anti-PD-1 or isotype control on day 22 after treatment. (A) Representative images from each group are shown. Scale bars, 50µm. The scatter plots show the number of Iba-1^+ cells (per mm^2) in cortex (B) and hippocampus (C). The results (mean ± s.e.m.) were combined. […] The P-values were calculated using the unpaired student's t-test. […] (E-H) Scatter plots showing Imaris-based automated quantification of microglial morphology from microglia the cortex of mice treated with anti-PD-1 or isotype control on day 22 after treatment. […] The P-values were calculated using the unpaired student's t-test. • Figure 2: Anti-PD-1 treatment causes neurocognitive deficits and increased CSF-1R and MHC-II expression on microglia. […] (C-D) The scatter plot (C) and representative histogram (D) show the quantification (fold change of MFI) of CSF-1R (CD115) on microglia (CD45^lo CD11b^+) isolated from the CNS of mice treated with anti-PD-1 or isotype control on day 22. […]

[3] = tested on: mice; assay: Grip strength test; type: in vivo; settings: melanoma bearing mice
Description: as §2

[4] = tested on: cells isolated from BM and spleen; assay: Flow cytometry of peripheral immune cells from BM and spleen of melanoma-bearing mice; type: in vivo
Description: as §1

[5] = tested on: lymphoma cells; settings: reference (45); cited from earlier work
[6] = tested on: microglia (CD45lo CD11b+); assay: Flow cytometry of microglia / CD11b+ cells isolated from the CNS of mice; type: in vivo; settings: melanoma bearing mice on CSF-1R inhibitor diet vs control diet (Fig. 6, Fig. 14)
Description: as §2

[7] = tested on: B-cell lymphomas; settings: in vitro; cited from earlier work

COc1cc(Nc2ncc(F)c(Nc3ccc4c(n3)N(COP(=O)(O)O)C(=O)C(C)(C)O4)n2)cc(OC)c1OC [Fostamatinib]
time spent exploring a novel object with respect to the total time (memory) ([1]; melanoma bearing mice, anti-PD-1 plus Syk inhibitor vs anti-PD-1 plus vehicle (Fig. 7K day 17; Fig. 33B)): reproducible
entries into open arms (exploratory) [2]: reproducible
grip strength normalized to body weight ([3]; anti-PD-1 plus Syk inhibitor or vehicle (Fig. 7M day 17; Fig. 33C)): reproducible
peripheral myeloid compartment (CD45+, F4/80+ cells in BM and spleen) ([4]; anti-PD-1/isotype and second Syk inhibitor/vehicle (Fig. 33D-G)): No changes
CD3+ T cells in the BM and spleen ([4]; anti-PD-1/isotype and second Syk inhibitor/vehicle (Fig. 33H and I)): expansion

Cn1cc(-c2nc(N[C@@H]3CCCC[C@@H]3N)c(F)c3c2C(=O)NC3)cn1 [TAK-659]
pro-survival, proliferative, chemoresistant, and activation effects promoted by the microenvironment [5]: impair

COc1ncc(F)cc1CNc1ccc(Cc2c[nH]c3ncc(C)cc23)c(F)n1 [PLX5622]
CSF-1R positive cells (CD11b+ and CD11b+CD45lo cells in the CNS) [6]: depletion
neurocognitive function in novel object recognition test, anti-PD-1 treated mice ([1]; melanoma bearing mice treated with anti-PD-1 plus depleting agent or its control, day 23 (Fig. 6B, F, J, M, O)): improved
neurocognitive function in novel object recognition test, isotype treated mice ([1]; melanoma bearing mice treated with isotype antibody plus depleting agent or its control, day 23 (Fig. 6A, E)): did not develop neurocognitive deficits
grip strength normalized to body weight ([3]; isotype or anti-PD-1 plus depleting agent or its control, day 23 (Fig. 6C, D, G, H)): intact
frequencies of CD45, CD11b, Ly6C and CD11c populations in the BM and spleen ([4]; CSF-1R inhibitor diet day -7 to day 23): did not alter

CCS(=O)(=O)N1CCN(c2ccc(Nc3ncc(C(N)=O)c(NC4CC4)n3)cc2)CC1 [Cerdulatinib]
activity against B-cell lymphomas [7]: in vitro activity
